Tests used:
[1] = molecular target: GDP-bound NRAS wild-type protein (Homo sapiens, UniProt P01111); assay: Binding to NRAS by surface plasmon resonance (SPR), Single Cycle Kinetics; settings: KD ratio NRAS/KRAS, SPR
[2] = molecular target: GDP-bound HRAS wild-type protein (Homo sapiens, UniProt P01112); assay: Binding to HRAS by surface plasmon resonance (SPR), Single Cycle Kinetics; settings: KD ratio HRAS/KRAS, SPR
Sequence of GDP-bound HRAS wild-type protein (P01112 whole entry): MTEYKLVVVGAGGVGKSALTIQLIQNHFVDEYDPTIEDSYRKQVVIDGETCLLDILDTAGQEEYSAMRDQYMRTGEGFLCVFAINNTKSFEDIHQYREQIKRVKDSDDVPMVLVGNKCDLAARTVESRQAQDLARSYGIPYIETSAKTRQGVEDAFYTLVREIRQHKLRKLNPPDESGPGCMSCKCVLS

Sequence of GDP-bound NRAS wild-type protein (P01111 whole entry): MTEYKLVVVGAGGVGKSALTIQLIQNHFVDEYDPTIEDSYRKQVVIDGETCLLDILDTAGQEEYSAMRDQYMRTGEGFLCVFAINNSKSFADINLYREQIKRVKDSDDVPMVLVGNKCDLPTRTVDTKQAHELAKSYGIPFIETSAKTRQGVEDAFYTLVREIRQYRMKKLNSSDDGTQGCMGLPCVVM

| Structure (SMILES) | NRAS/KRAS (ratio of KD value with respect to GDP-bound NRAS wild-type protein to KD value with respect to KRAS) [1] | HRAS/KRAS (ratio of KD value with respect to GDP-bound HRAS wild-type protein to KD value with respect to KRAS) [2] |
| --- | --- | --- |
| CC[C@H](C)[C@@H]1NC(=O)[C@H](CC(C)C)N(C)C(=O)C[C@@H](C(=O)N2CCOCC2)N(CC)C(=O)[C@H](C2CCCC2)N(C)C(=O)C2(CCCC2)NC(=O)[C@@H]2CCCN2C(=O)[C@H](CCc2cc(F)c(C(F)(F)F)c(F)c2)NC(=O)CN(C)C(=O)[C@H](Cc2ccc(C(F)(F)F)cc2)N2CCCCC[C@@H](C2=O)N(C)C(=O)CN(C)C1=O [PP0477] | A (a compound having 10 or more and less than 20 is denoted as A) | A (a compound having 10 or more and less than 20 is denoted as A) |
| CC[C@H](C)[C@@H]1NC(=O)[C@H](CC(C)C)N(C)C(=O)C[C@@H](C(=O)N2CCOCC2)NC(=O)[C@H](C2CCCC2)N(C)C(=O)C2(CCCC2)NC(=O)[C@@H]2CCCN2C(=O)[C@H](CCc2cc(F)c(C(F)(F)F)c(F)c2)NC(=O)CN(C)C(=O)[C@H](Cc2ccc(C(F)(F)F)cc2)N2CCCCC[C@@H](C2=O)N(C)C(=O)CN(C)C1=O [PP0479] | B (a compound having 3 or more and less than 10 is denoted as B) | B (a compound having 3 or more and less than 10 is denoted as B) |
| CC[C@H](C)[C@@H]1NC(=O)[C@H](CC(C)C)N(C)C(=O)C[C@@H](C(=O)N2CCOCC2)N(C)C(=O)[C@H](C2CCCC2)N(C)C(=O)C2(CCCC2)NC(=O)[C@@H]2CCCN2C(=O)[C@H](CCc2cc(F)c(C(F)(F)F)c(F)c2)NC(=O)CN(C)C(=O)[C@H](Cc2ccc(C(F)(F)F)cc2)N2CCCCC[C@@H](C2=O)N(C)C(=O)[C@H](C)NC1=O [PP0481] | B (a compound having 3 or more and less than 10 is denoted as B) | B (a compound having 3 or more and less than 10 is denoted as B) |
| CC[C@H](C)[C@@H]1NC(=O)[C@H](CC(C)C)N(C)C(=O)C[C@@H](C(=O)N2CCOCC2)N(C)C(=O)[C@H](C2CCCC2)N(C)C(=O)C2(CCCC2)NC(=O)[C@@H]2CCCN2C(=O)[C@H](CCc2cc(F)c(C(F)(F)F)c(F)c2)NC(=O)CN(C)C(=O)[C@H](Cc2ccc(C(F)(F)F)cc2)N2CCCCC[C@@H](C2=O)N(C)C(=O)CN(CC)C1=O [PP0483] | B (a compound having 3 or more and less than 10 is denoted as B) | B (a compound having 3 or more and less than 10 is denoted as B) |
| CC[C@H](C)[C@@H]1NC(=O)[C@H](CC(C)C)N(C)C(=O)C[C@@H](C(=O)N2CCOCC2)N(C)C(=O)[C@H](C2CCCC2)N(C)C(=O)C2(CCCC2)NC(=O)[C@@H]2CCCN2C(=O)[C@H](CCc2cc(F)c(C(F)(F)F)c(F)c2)NC(=O)CN(C)C(=O)[C@H](Cc2ccc(C(F)(F)F)cc2)N2CCCCC[C@@H](C2=O)N(C)C(=O)[C@@H]2CCN2C1=O [PP0484] | A (a compound having 10 or more and less than 20 is denoted as A) | B (a compound having 3 or more and less than 10 is denoted as B) |
| CC[C@H](C)[C@@H]1NC(=O)[C@H](CC(C)C)N(C)C(=O)C[C@@H](C(=O)N2CCOCC2)N(C)C(=O)[C@H](C2CCCC2)N(C)C(=O)C2(CCCC2)NC(=O)[C@@H]2CCCN2C(=O)[C@H](CCc2cc(F)c(C(F)(F)F)c(F)c2)NC(=O)CN(C)C(=O)[C@H](Cc2ccc(C(F)(F)F)cc2)N2CCCCC[C@@H](C2=O)N(C)C(=O)[C@@H]2CCCN2C1=O [PP0485] | A (a compound having 10 or more and less than 20 is denoted as A) | B (a compound having 3 or more and less than 10 is denoted as B) |
| CC[C@H](C)[C@@H]1NC(=O)[C@H](C)N(C)C(=O)C[C@@H](C(=O)N2CCOCC2)N(C)C(=O)[C@H](C2CCCC2)N(C)C(=O)C2(CCCC2)NC(=O)[C@@H]2CCCN2C(=O)[C@H](CCc2cc(F)c(C(F)(F)F)c(F)c2)NC(=O)CN(C)C(=O)[C@H](Cc2ccc(C(F)(F)F)cc2)N2CCCCC[C@@H](C2=O)N(C)C(=O)CN(C)C1=O [PP0487] | B (a compound having 3 or more and less than 10 is denoted as B) | B (a compound having 3 or more and less than 10 is denoted as B) |
| CC[C@H](C)[C@@H]1NC(=O)[C@H](CC)N(C)C(=O)C[C@@H](C(=O)N2CCOCC2)N(C)C(=O)[C@H](C2CCCC2)N(C)C(=O)C2(CCCC2)NC(=O)[C@@H]2CCCN2C(=O)[C@H](CCc2cc(F)c(C(F)(F)F)c(F)c2)NC(=O)CN(C)C(=O)[C@H](Cc2ccc(C(F)(F)F)cc2)N2CCCCC[C@@H](C2=O)N(C)C(=O)CN(C)C1=O [PP0488] | A (a compound having 10 or more and less than 20 is denoted as A) | B (a compound having 3 or more and less than 10 is denoted as B) |
| CC[C@H](C)[C@@H]1NC(=O)[C@H](CC(C)C)N(C)C(=O)C[C@@H](C(=O)N2CCOCC2)N(C)C(=O)[C@H](C2CCCC2)N(C)C(=O)C2(CCCC2)NC(=O)[C@@H]2CCCN2C(=O)[C@H](CCc2cc(F)c(C(F)(F)F)c(F)c2)NC(=O)CN(C)C(=O)[C@H](Cc2ccc(C(F)(F)F)cc2)N2CCCCC[C@@H](C2=O)N(C)C(=O)CN(C)C1=O [PP0490] | B (a compound having 3 or more and less than 10 is denoted as B) | B (a compound having 3 or more and less than 10 is denoted as B) |
| CC[C@H](C)[C@@H]1NC(=O)[C@H](CC(C)C)N(C)C(=O)C[C@@H](C(=O)N2CCOCC2)N(C)C(=O)[C@H](C2CCCC2)N(C)C(=O)C2(CCCC2)NC(=O)[C@@H]2CC(F)(F)CN2C(=O)[C@H](CCc2cc(F)c(C(F)(F)F)c(F)c2)NC(=O)CN(C)C(=O)[C@H](Cc2ccc(C(F)(F)F)cc2)N2CCCCC[C@@H](C2=O)N(C)C(=O)CN(C)C1=O [PP0491] | B (a compound having 3 or more and less than 10 is denoted as B) | B (a compound having 3 or more and less than 10 is denoted as B) |
| CCO[C@@H]1C[C@H]2C(=O)NC3(CCCC3)C(=O)N(C)[C@@H](C3CCCC3)C(=O)N(C)[C@H](C(=O)N3CCOCC3)CC(=O)N(C)[C@@H](CC(C)C)C(=O)N[C@@H]([C@@H](C)CC)C(=O)N(C)CC(=O)N(C)[C@H]3CCCCCN(C3=O)[C@@H](Cc3ccc(C(F)(F)F)cc3)C(=O)N(C)CC(=O)N[C@@H](CCc3cc(F)c(C(F)(F)F)c(F)c3)C(=O)N2C1 [PP0492] | B (a compound having 3 or more and less than 10 is denoted as B) | B (a compound having 3 or more and less than 10 is denoted as B) |
| CC[C@H](C)[C@@H]1NC(=O)[C@H](CC(C)C)N(C)C(=O)C[C@@H](C(=O)N2CCOCC2)N(C)C(=O)[C@H](C2CCCC2)N(C)C(=O)C2(CCCC2)NC(=O)[C@@H]2CC(=O)CN2C(=O)[C@H](CCc2cc(F)c(C(F)(F)F)c(F)c2)NC(=O)CN(C)C(=O)[C@H](Cc2ccc(C(F)(F)F)cc2)N2CCCCC[C@@H](C2=O)N(C)C(=O)CN(C)C1=O [PP0493] | B (a compound having 3 or more and less than 10 is denoted as B) | B (a compound having 3 or more and less than 10 is denoted as B) |
| CC[C@H](C)[C@@H]1NC(=O)[C@H](CC(C)C)N(C)C(=O)C[C@@H](C(=O)N2CCOCC2)N(C)C(=O)[C@H](C2CCCC2)N(C)C(=O)C2(CCCC2)NC(=O)[C@@H]2C[C@H](OC)CN2C(=O)[C@H](CCc2cc(F)c(C(F)(F)F)c(F)c2)NC(=O)CN(C)C(=O)[C@H](Cc2ccc(C(F)(F)F)cc2)N2CCCCC[C@@H](C2=O)N(C)C(=O)CN(C)C1=O [PP0495] | A (a compound having 10 or more and less than 20 is denoted as A) | B (a compound having 3 or more and less than 10 is denoted as B) |
| CC[C@H](C)[C@@H]1NC(=O)[C@H](CC(C)C)N(C)C(=O)C[C@@H](C(=O)N2CCOCC2)N(C)C(=O)[C@H](C2CCCC2)N(C)C(=O)C2(CC2)NC(=O)[C@@H]2CCCN2C(=O)[C@H](CCc2cc(F)c(C(F)(F)F)c(F)c2)NC(=O)CN(C)C(=O)[C@H](Cc2ccc(C(F)(F)F)cc2)N2CCCCC[C@@H](C2=O)N(C)C(=O)CN(C)C1=O [PP0496] | B (a compound having 3 or more and less than 10 is denoted as B) | B (a compound having 3 or more and less than 10 is denoted as B) |
| CC[C@H](C)[C@@H]1NC(=O)[C@H](CC(C)C)N(C)C(=O)C[C@@H](C(=O)N2CCOCC2)N(C)C(=O)[C@H](C2CCCC2)N(C)C(=O)C2(CCC2)NC(=O)[C@@H]2CCCN2C(=O)[C@H](CCc2cc(F)c(C(F)(F)F)c(F)c2)NC(=O)CN(C)C(=O)[C@H](Cc2ccc(C(F)(F)F)cc2)N2CCCCC[C@@H](C2=O)N(C)C(=O)CN(C)C1=O [PP0497] | B (a compound having 3 or more and less than 10 is denoted as B) | B (a compound having 3 or more and less than 10 is denoted as B) |
| CC[C@H](C)[C@@H]1NC(=O)[C@H](CC(C)C)N(C)C(=O)C[C@@H](C(=O)N2CCOCC2)N(C)C(=O)[C@H](C2CCCC2)N(C)C(=O)C2(CCCCC2)NC(=O)[C@@H]2CCCN2C(=O)[C@H](CCc2cc(F)c(C(F)(F)F)c(F)c2)NC(=O)CN(C)C(=O)[C@H](Cc2ccc(C(F)(F)F)cc2)N2CCCCC[C@@H](C2=O)N(C)C(=O)CN(C)C1=O [PP0498] | B (a compound having 3 or more and less than 10 is denoted as B) | B (a compound having 3 or more and less than 10 is denoted as B) |

Source: patent US20250230193A1, “CYCLIC COMPOUND HAVING SELECTIVE KRAS INHIBITORY EFFECT ON HRAS AND NRAS” (CHUGAI SEIYAKU KABUSHIKI KAISHA, priority 2022, published 2025)
